Laboratory results: patent US7943296B2, “Methods of screening using a natriuretic peptide receptor” (Oregon Health & Science University, priority 2005, dated 2011)
Numbering of substitutions follows the chain as printed.

Tests used:
α-SMA promoter [1] = test: TGF-β1-induced α-SMA-luciferase reporter in CFs transfected with pcDNA3-sNRF or control vector; format: cell-based; conditions: for inhibitory effect on sNRF action (loss of NP inhibition of α-SMA-luciferase): sNRF-transfected CFs, TGF-β1 + ANP, 24 hours
Procedure: TGF-β1 signaling is required for angiotensin effects in the heart, and NPs oppose TGF-β1 effects in CFs. […] CFs were transiently transfected with the α-SMA-luciferase vector and pcDNA3 control vector or pcDNA3-sNRF, then treated for 24 hours with TGF-β1, ANP, and the angiotensin-converting enzyme inhibitor captopril (CAP) or the angiotensin receptor-1 blocker losartan (LOS).

PKG [2] = target: T1, PKG (Homo sapiens, UniProt Q13976); test: Immunofluorescence of NP-induced PKG membrane translocation in HEK-NPRA cells; format: cell-based; conditions: fragment expressed in HEK-NPRA cells; ANP 100 nM 15 minutes
T1 construct: endogenous in cells; host or cells: HEK293 stably over-expressing FLAG-NPRA (HEK-NPRA)
T1 sequence (Q13976 1-671): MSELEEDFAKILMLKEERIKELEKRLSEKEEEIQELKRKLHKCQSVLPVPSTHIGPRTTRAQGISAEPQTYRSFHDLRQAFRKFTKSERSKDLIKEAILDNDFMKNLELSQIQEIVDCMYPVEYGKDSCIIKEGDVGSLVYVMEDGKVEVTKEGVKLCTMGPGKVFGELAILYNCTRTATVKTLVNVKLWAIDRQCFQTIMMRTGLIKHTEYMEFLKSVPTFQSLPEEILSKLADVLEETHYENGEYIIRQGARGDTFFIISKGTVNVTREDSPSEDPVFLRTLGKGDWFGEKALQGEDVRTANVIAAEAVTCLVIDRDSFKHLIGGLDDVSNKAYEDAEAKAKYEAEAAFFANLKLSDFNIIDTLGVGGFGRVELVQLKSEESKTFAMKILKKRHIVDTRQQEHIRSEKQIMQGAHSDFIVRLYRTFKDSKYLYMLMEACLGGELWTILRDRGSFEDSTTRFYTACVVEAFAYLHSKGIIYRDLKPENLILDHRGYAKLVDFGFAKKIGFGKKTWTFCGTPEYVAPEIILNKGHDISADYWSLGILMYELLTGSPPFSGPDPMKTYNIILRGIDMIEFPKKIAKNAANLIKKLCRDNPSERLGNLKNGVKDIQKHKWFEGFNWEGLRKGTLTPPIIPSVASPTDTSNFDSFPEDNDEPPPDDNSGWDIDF
Procedure: HEK-NPRA cells were transiently transfected with insertless pcDNA3 plasmid vector or pcDNA3-sNRF^(806-1061). All slide wells were treated with atrial natriuretic peptide (ANP) (100 nM; Sigma-Aldrich #A1663) for 15 minutes. Cells were decorated with monoclonal flag antibody specific for FLAG-NPRA (red) and polyclonal PKG antibody (green). Overlapping regions of PKG and NPRA appeared yellow-orange. PKG staining was absent when anti-PKG antibody was pre-adsorbed with recombinant PKG protein (Calbiochem).

PKG [3] = target: T2, PKG (Rattus norvegicus, UniProt A9LNM8); test: Co-immunoprecipitation of PKG with FLAG-tagged NPRA fragments in primary CFs; format: binding; conditions: 5'-FLAG-tagged fragment in transfected CFs, anti-FLAG M2 affinity gel
T2 construct: endogenous in cells; host or cells: primary neonatal rat cardiac fibroblasts transfected with 5'-FLAG sNRF fragments
T2 sequence (A9LNM8 1-671): T1 sequence (Q13976 1-671) with E227D, T265K, N267S, G291E, K499E, N586S, N656S
Procedure: Neonatal rat ventricular fibroblasts (CFs) were cultured from 1 to 2-day-old Harlan Sprague-Dawley rats as described previously (Simpson, Circulation Res. 56:884-94, 1985). Briefly, ventricles were dissected free from atria and quartered. Following dissociation in ADS buffer containing 1.5 mg/ml trypsin (Gibco #27250-018) and 1% DNase solution (2 mg/ml DNase type II, 150 mM NaCl) with serum neutralization the collected cells were pre-incubated in media at 37° C. for 90 minutes to allow CF attachment to the bottom of culture dishes. CFs were incubated in plating media for 48 hours, divided into 6-well culture plates or dual-well chamberslides, and grown to 50% confluency in DMEM with 10% FBS prior to use.
CFs were transiently transfected with nucleic acid molecules encoding sNRF^(806-1061), sNRF^(806-900), or sNRF^(806-860) using routine methods. Briefly, PCR-generated, 5′-FLAG epitope-tagged sNRFs were subcloned into the BamHI and EcoRI sites of pCDNA3 (Invitrogen) and sequenced to verify construction accuracy. […]
The ability of the NPRA fragments to immunoprecipitate PKG was determined in the primary CF cells transfected with the 5′-FLAG epitope-tagged NPRA fragments as follows. […] Bound antibody was detected with chemiluminescent substrate (Western Lightning ECL, PerkinElmer Life Sciences).

[4] = tested on: cardiac fibroblasts (CFs); test: Vimentin localisation in CFs by immunofluorescence microscopy; format: cell-based, rat; conditions: in the presence of ANP
Procedure: (§1) NP's ability to inhibit growth factor-induced CF differentiation into myofibroblasts was determined as follows. CFs were transiently transfected with insertless pcDNA3 vector or pcDNA3 encoding sNRF^(806-900) (see Example 7). The transfected CFs were then treated for 48 hours with 10 ng/ml basic fibroblast growth factor (FGF; Sigma-Aldrich #F0291) in the presence or absence of 100 nM ANP. Alpha-smooth muscle actin (α-SMA) protein expression, the principal marker of CF differentiation, was assessed by Western blotting and immunofluorescence microscopy. Vimentin staining was used as a loading control because it is expressed equally in fibroblasts and transdifferentiated myofibroblasts.
For the immunofluorescence microscopy, slide wells were treated as described in Example 7 and incubated with anti-α-SMA and anti-vimentin antibody as well as phalloidin to stain for actin. Briefly, cells were rinsed twice with phosphate-buffered saline (PBS) and fixed with 3.7% formaldehyde in PBS for 10 minutes. After fixation, cells were rinsed with PBS and permeabilized with 0.3% Triton X-100 in PBS for 10 minutes and blocked for 1 hour in 1% horse serum, 0.2% bovine serum albumin in PBS. Cells were then incubated with primary α-SMA antibody (ABCAM ab7817) and primary vimentin antibody (ABCAM ab7783) diluted in blocking solution for 1 hour and washed three times with blocking solution for 5 minutes. […]

α-SMA promoter [5] = test: α-SMA-luciferase reporter in neonatal rat CFs with daily TGF-β1, model of NP resistance; format: cell-based
Procedure: Neonatal rat CFs were transfected with an α-SMA-luciferase reporter construct driven by TGF-β1 induction of the α-SMA promoter. After 24 hours, cells were treated daily with […] TGF-β1 for up to 4 days. On each successive day, some of the cells were treated with NP (ANP, 100 nM), and luciferase activity measured.

[6] = tested on: cardiac fibroblasts (CFs); test: bFGF-induced α-SMA protein expression in CFs (Western blot); format: cell-based, rat; conditions: cells with insertless vector; 10 ng/ml FGF 48 hours; 100 nM ANP
Procedure: as §1

Compound: C[C@H](CS)C(=O)N1CCC[C@H]1C(=O)O [captopril]
- inhibitory effect on sNRF action (loss of NP inhibition of α-SMA-luciferase) (α-SMA promoter [1]): no significant inhibitory effect

Compound: sNRF^(806-1061): intracellular NPRA fragment, residues 806-1061, with hinge domain and C-terminal guanylyl cyclase domain; expressed FLAG-tagged
- translocation of cytosolic PKG to the plasma membrane (PKG [2]): inhibited translocation of cytosolic PKG to the plasma membrane
- co-immunoprecipitation of PKG (PKG [3]): co-immunoprecipitated PKG

Compound: CC[C@H](C)[C@@H]1NC(=O)[C@H](CCCNC(=N)N)NC(=O)[C@H](CC(=O)O)NC(=O)[C@H](CCSC)NC(=O)[C@H](CCCNC(=N)N)NC(=O)CNC(=O)CNC(=O)[C@H](Cc2ccccc2)NC(=O)[C@@H](NC(=O)[C@H](CO)NC(=O)[C@H](CO)NC(=O)[C@H](CCCNC(=N)N)NC(=O)[C@H](CCCNC(=N)N)NC(=O)[C@H](CC(C)C)NC(=O)[C@@H](N)CO)CSSC[C@@H](C(=O)N[C@@H](CC(N)=O)C(=O)N[C@@H](CO)C(=O)N[C@@H](Cc2ccccc2)C(=O)N[C@@H](CCCNC(=N)N)C(=O)N[C@@H](Cc2ccc(O)cc2)C(=O)O)NC(=O)CNC(=O)[C@H](CC(C)C)NC(=O)CNC(=O)[C@H](CO)NC(=O)[C@H](CCC(N)=O)NC(=O)[C@H](C)NC(=O)CNC1=O [ANP, atrial natriuretic peptide]
- nuclear to cytosolic translocation of vimentin [4]: nuclear to cytosolic translocation of vimentin was observed
- TGF-β1-induced α-SMA-luciferase expression (α-SMA promoter [1]; cells that do not over-express sNRF): inhibits TGF-β1-induced α-SMA-luciferase expression
- expression of the luciferase reporter construct driven by TGF-β1 induction of the α-SMA promoter (α-SMA promoter [5]; NP (ANP, 100 nM) 24 hours, 100 nM TGF-β1): almost completely inhibited
- NP's inhibitory effect on TGF-β1-induced α-SMA-luciferase (α-SMA promoter [5]; progressively longer periods of NP treatment, up to 4 days): steady decline in NP's inhibitory effects
- bFGF-induced α-SMA protein expression [6]: inhibited bFGF-induced α-SMA protein expression

Compound: CCCCc1nc(Cl)c(CO)n1Cc1ccc(-c2ccccc2-c2nn[nH]n2)cc1 [losartan]
- NP-inhibition of TGF-β1 induction of α-SMA-luciferase (α-SMA promoter [1]; non-sNRF transfected cells): blocks NP-inhibition of TGF-β1 induction of α-SMA-luciferase
- inhibitory effect on sNRF action (loss of NP inhibition of α-SMA-luciferase) (α-SMA promoter [1]): no significant inhibitory effect
